The experiment concerns the target T1, human DP2 receptor (Homo sapiens, UniProt Q9Y5Y4).
T1 construct: expressed in transfected cells; membrane preparation
T1 sequence (Q9Y5Y4 1-395): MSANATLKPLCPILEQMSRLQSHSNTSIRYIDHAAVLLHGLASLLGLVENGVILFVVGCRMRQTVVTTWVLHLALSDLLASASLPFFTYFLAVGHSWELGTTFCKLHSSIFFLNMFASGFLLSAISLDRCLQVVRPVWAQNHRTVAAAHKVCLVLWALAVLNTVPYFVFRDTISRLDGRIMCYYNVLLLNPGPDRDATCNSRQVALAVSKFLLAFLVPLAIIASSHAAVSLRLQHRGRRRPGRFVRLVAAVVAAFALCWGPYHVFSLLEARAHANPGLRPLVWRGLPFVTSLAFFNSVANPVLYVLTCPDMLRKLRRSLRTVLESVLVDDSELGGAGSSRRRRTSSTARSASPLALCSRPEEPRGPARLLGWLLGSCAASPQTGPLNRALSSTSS
The experiment can be described thus: DP2/CRTH2 radioligand binding assay using [3H]PGD2. The settings on record: hDP2 (CRTH2) binding assay; membranes of HEK293 cells expressing recombinant human DP2, 1 nM [3H]PGD2. As for the experimental part: The ability of a compound to bind to the human DP2 receptor is assessed via a radioligand binding assay using [^3H]PGD2. HEK293 cells stably expressing recombinant human DP2 are resuspended in 10 mM Hepes, 7.4 containing 1 mM DTT, lysed and centrifuged at 75,000×g to pellet the membranes. The membranes are resuspended in 10 mM Hepes, 7.4 containing 1 mM DTT and 10% glycerol to approximately 5 mg protein/ml. Membranes (2-10 μg protein/well) are incubated in 96-well plates with 1 nM [^3H]PGD2 and test compound in Assay Buffer (50 mM Hepes, 10 mM MnCl2, 1 mM EDTA, plus or minus 0.2% human serum albumin, pH 7.4) for 60 minutes at room temperature. The reactions are terminated by rapid filtration through Whatman GF/C glass fibre filter plates. The filter plates were pre-soaked in 0.33% polythylenimine for 30 minutes at room temperature then washed in Wash Buffer (50 mM Hepes, 0.5 M NaCl pH 7.4) prior to harvesting. After harvesting, the filter plates are washed 3 times with 1 ml cold Wash Buffer then dried. Scintillant is then added to the plates and the radioactivity retained on the filters is determined on a Packard TopCount (Perkin Elmer). Specific binding is determined as total radioactive binding minus non-specific binding in the presence of 10 μM PGD2. IC50s were determined using GraphPad prism analysis of drug titration curves.

Twelve molecules from patent US20110312974A1, “HETEROARYL ANTAGONISTS OF PROSTAGLANDIN D2 RECEPTORS” (AMIRA PHARMACEUTICALS, INC., priority 2008, published 2011) can be followed below.

Usually IC50 stands for the concentration at which inhibition is half-maximal. For `C[C@H]1[C@@H](c2ccccc2)OC(=O)N1Cc1cc(C(F)(F)F)ccc1-c1cncc(CC(=O)O)c1` [Compound 2-1, {5-[2-((4S,5R)-4-Methyl-2-oxo-5-phenyl-oxazolidin-3-ylmethyl)-4-trifluoromethyl-phenyl]-pyridin-3-yl}-acetic acid], the IC50 is under 300 nM. Under `CC(=O)NCc1ccc(-c2cncc(CC(=O)O)c2)c(CN(Cc2ccccc2)C(=O)C2CC2)c1` [Compound 1-9, (5-{4-(Acetylamino-methyl)-2-[(N-benzyl-N-cyclopropanecarbonyl-amino)-methyl]-phenyl}-pyridin-3-yl)-acetic acid] stands over 1000 nM. Consider `CCN(Cc1cc(-n2cccn2)ccc1-c1cc(CC(=O)O)cnc1OC)C(=O)C1CC1` [Compound 1-46, (5-{2-[(N-Cyclopropanecarbonyl-N-ethyl-amino)-methyl]-4-pyrazol-1-yl-phenyl}-6-methoxy-pyridin-3-yl)-acetic acid], for which the IC50 was under 300 nM. Then `CC(=O)N(Cc1cnc(C)cn1)Cc1cc(C(F)(F)F)ccc1-c1cncc(CC(=O)O)c1` [Compound 1-61, [5-(2-{[N-Acetyl-N-(5-methyl-pyrazin-2-ylmethyl)-amino]-methyl}-4-trifluoromethyl-phenyl)-pyridin-3-yl]-acetic acid], with under 300 nM; and `CCN(Cc1cc(C(F)(F)F)ccc1-c1cc(C(F)(F)F)cc(CC(=O)O)n1)C(=O)C1CCC1` [Compound 1-41, (6-{2-[(N-Cyclobutanecarbonyl-N-ethyl-amino)-methyl]-4-trifluoromethyl-phenyl}-4-trifluoromethyl-pyridin-2-yl)-acetic acid], with under 300 nM; and `CC(=O)N(CCc1ccccc1)Cc1cc(C(F)(F)F)ccc1-c1cncc(CC(=O)O)c1` [Compound 1-27, (5-{2-[(N-Acetyl-N-phenethyl-amino)-methyl]-4-trifluoromethyl-phenyl}-pyridin-3-yl)-acetic acid], with under 300 nM. Under `CCN(Cc1cc(C(F)(F)F)ccc1-c1cc(C(F)(F)F)cc(CC(=O)O)n1)C(=O)NCc1ccccc1` [Compound 1-42, {6-[2-(3-Benzyl-1-ethyl-ureidomethyl)-4-trifluoromethyl-phenyl]-4-trifluoromethyl-pyridin-2-yl}-acetic acid] stands under 300 nM.

As for `CCN(Cc1cc(F)ccc1-c1cncc(C(C)C(=O)O)c1)C(=O)NCc1ccccc1` (stereo not drawn) [Compound 1-12, 2-{5-[2-(3-Benzyl-1-ethyl-ureidomethyl)-4fluoro-phenyl]-pyridin-3-yl}-propionic acid], the IC50 was in the range of 300 to 1000 nM.

Regarding `Cc1nn(CC(=O)O)c(C)c1-c1ccc(C(F)(F)F)cc1CN(Cc1ccccc1)C(=O)C1CC1` [Compound 3-3, (4-{2-[(N-Benzyl-N-cyclopropanecarbonyl-amino)-methyl]-4-trifluoromethyl-phenyl}-3,5-dimethyl-pyrazol-1-yl)-acetic acid], the IC50 was under 300 nM. In the case of `Cc1cnc(CN(Cc2cc(C(F)(F)F)ccc2-c2cncc(CC(=O)O)c2)C(=O)C2CC2)cn1` [Compound 1-58, [5-(2-{[N-Cyclopropanecarbonyl-N-(5-methyl-pyrazin-2-ylmethyl)-amino]-methyl}-4-trifluoromethyl-phenyl)-pyridin-3-yl]-acetic acid], the IC50 is under 300 nM.

Turning to `CCN(Cc1cc(C(F)(F)F)ccc1-c1cc(CC(=O)O)cnc1OCC1CC1)C(=O)C1CC1` [Compound 1-69, (5-{2-[(N-Cyclopropanecarbonyl-N-ethyl-amino)-methyl]-4-trifluoromethyl-phenyl}-6-cyclopropylmethoxy-pyridin-3-yl)-acetic acid], the IC50 was under 300 nM. Under `O=C(O)Cc1cncc(-c2ccc(C(F)(F)F)cc2CN(Cc2ccccn2)C(=O)C2CC2)c1` [Compound 1-52, (5-{2-[(N-Cyclopropanecarbonyl-N-pyridin-2-ylmethyl-amino)-methyl]-4-trifluoromethyl-phenyl}-pyridin-3-yl)-acetic acid] stands under 300 nM.
